Reference: patent US8394836B2, “Indoles and their therapeutic use” (Pulmagen Therapeutics (Asthma) Limited, priority 2007, dated 2013)

How the values were obtained:
CRTH2 receptor [1] = biological target: T1, CRTH2 receptor (Homo sapiens, UniProt Q9Y5Y4); assay: CRTH2 radioligand binding assay ([3H]-PGD2 displacement, SPA); settings: HEK cell membranes expressing the CRTH2 receptor; 1 nM [3H]-PGD2; Ki from IC50 by Cheng-Prusoff
T1 construct: expressed in transfected cells; host or cells: Human embryonic kidney (HEK) cells, used as membranes
T1 sequence (Q9Y5Y4 1-395): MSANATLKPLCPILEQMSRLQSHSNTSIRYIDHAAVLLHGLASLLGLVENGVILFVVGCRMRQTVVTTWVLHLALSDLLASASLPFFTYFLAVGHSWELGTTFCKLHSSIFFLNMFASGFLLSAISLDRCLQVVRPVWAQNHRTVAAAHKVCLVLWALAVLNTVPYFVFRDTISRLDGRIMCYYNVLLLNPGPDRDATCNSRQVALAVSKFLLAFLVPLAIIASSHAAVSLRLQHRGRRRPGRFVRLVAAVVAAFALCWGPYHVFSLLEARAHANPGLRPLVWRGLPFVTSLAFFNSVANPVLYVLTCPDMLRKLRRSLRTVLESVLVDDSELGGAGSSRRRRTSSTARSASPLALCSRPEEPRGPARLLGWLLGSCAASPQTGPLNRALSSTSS
Method: Compounds of the invention were tested using the following biological test method to determine their ability to displace PGD2 from the CRTH2 receptor.
CRTH2 Radioligand Binding Assay
The receptor binding assay is performed in a final volume of 200 μL binding buffer [10 mM BES (pH 7.4), 1 mM EDTA, 10 mM manganese chloride, 0.01% BSA] and 1 nM [^3H]-PGD2 (Amersham Biosciences UK Ltd). Ligands are added in assay buffer containing a constant amount of DMSO (1% by volume). Total binding is determined using 1% by volume of DMSO in assay buffer and non-specific binding is determined using 10 μM of unlabeled PGD2 (Sigma). Human embryonic kidney (HEK) cell membranes (3.5 μg) expressing the CRTH2 receptor are incubated with 1.5 mg wheatgerm agglutinin SPA beads and 1 nM [^3H]-PGD2 (Amersham Biosciences UK Ltd) and the mixture incubated for 3 hours at room temperature. Bound [^3H]-PGD2 is detected using a Microbeta TRILUX liquid scintillation counter (Perkin Elmer). Compound IC50 value is determined using a 6-point dose response curve in duplicate with a semi-log compound dilution series. IC50 calculations are performed using Excel and XLfit (Microsoft), and this value is used to determine a Ki value for the test compound using the Cheng-Prusoff equation.

CRTH2 receptor [2] = biological target: T1, CRTH2 receptor; assay: GTPγS functional assay; assay type: biochemical; settings: HEK cell membranes expressing the CRTH2 receptor; PGD2 30 nM; [35S]-GTPγS; Ki from IC50 by Cheng-Prusoff
Method: The GTP[…]S Assay is performed in a final volume of […] assay buffer (20 mM HEPES pH 7.4, 10 mM MgCl2, 100 mM NaCl, 10 μg/mL saponin). DMSO concentrations are kept constant at 1% by volume. Human embryonic kidney (HEK) cell membranes (3.5 μg) expressing the CRTH2 receptor are incubated with the compounds for 15 min at 30° C. prior to addition of PGD2 (30 nM final concentration) and GTP (10 μM final concentration). The assay solutions are then incubated for 30 minutes at 30° C., followed by addition of [^35S]-GTPγS (0.1 nM final concentration). The assay plate is than shaken and incubated for 5 minutes at 30° C. Finally, SPA beads (Amersham Biosciences, UK) are added to a final concentration of 1.5 mg/well and the plate shaken and incubated for 30 minute at 30° C. The sealed plate is centrifuged at 1000 g for 10 mins at 30° C. and the bound [^35S]-GTPγS is detected on Microbeta scintillation counter (Perkin Elmer). Compound IC50 value is determined using a 6-point dose response curve in duplicate with a semi-log compound dilution series. IC50 calculations are performed using Excel and XLfit (Microsoft), and this value is used to determine a Ki value for the test compound using the Cheng-Prusoff equation.

Structure (SMILES)	Ki (CRTH2 receptor [1]) [nM]	Ki (CRTH2 receptor [2]) [nM]
Cc1c(Cc2sccc2S(=O)(=O)c2ccc(F)cc2)c2cc(F)ccc2n1CC(=O)O [Example 1, {5-fluoro-3-[3-(4-fluorobenzenesulfonyl)thiophen-2-ylmethyl]-2-methylindol-1-yl}acetic acid]	1.5	< 10
Cc1c(Cc2sccc2S(=O)(=O)c2ccccn2)c2cc(F)ccc2n1CC(=O)O [Example 16, {5-fluoro-2-methyl-3-[3-(pyridine-2-sulfonyl)thiophen-2-ylmethyl]indol-1-yl}acetic acid]	2.4	< 10
Cc1c(Cc2ccccc2S(=O)(=O)N(C)c2ccccc2)c2cc(F)ccc2n1CC(=O)O [Example 21, {5-fluoro-2-methyl-3-[2-(methylphenylsulfamoyl)benzyl]indol-1-yl}acetic acid]	0.6	–
Cc1c(Cc2cccnc2S(=O)(=O)c2ccccc2)c2cc(Cl)ccc2n1CC(=O)O [Example 26, {5-chloro-3-[2-(benzenesulfonyl)pyridine-3-ylmethyl]-2-methylindol-1-yl}acetic acid]	4.5	< 10
